Measurements: publication PMC11456916, “A screen for cell envelope stress uncovers an inhibitor of prolipoprotein diacylglyceryl transferase, Lgt, in Escherichiacoli” (iScience, 2024)

Tested on: 356 CRISPRi constructs in E. coli ΔtolC-pore
Assay: CRISPRi collection fitness screen with sub-inhibitory compound
Format: cell-based
Conditions: for Growth represented as mean colony biomass: 1μg/ml MAC0452936, 6ng/ml LolCDE-in-1, 250 ng/ml Vancomycin, 7 ng/ml CHIR090, n=4; for Growth, mean colony biomass (n=4): + 1μg/ml MAC0452936
Outline: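 Mobile CRISPRi collection conjugated into the ΔtolC-pore strain and pinned on agar at 1536 density in technical quadruplicate with a sub-inhibitory MAC-0452936 concentration. No CRISPRi induction; only basal 5–10% knockdown.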

COc1ccc(C(=O)O/N=C(\c2cccs2)C(C)(C)C)cc1 [MAC0452936]
Growth represented as mean colony biomass (gRNA accA): 0.9619 | Growth, mean colony biomass (n=4) (gRNA aceF): 1.536 | Growth, mean colony biomass (n=4) (gRNA alaS): 1.17 | Growth, mean colony biomass (n=4) (gRNA argS): 1.078 | Growth, mean colony biomass (n=4) (gRNA asnS): 1.097 | Growth, mean colony biomass (n=4) (gRNA bamA): 1.082 | Growth, mean colony biomass (n=4) (gRNA bamD): 1.114 | Growth, mean colony biomass (n=4) (gRNA bioA): 1.093 | Growth, mean colony biomass (n=4) (gRNA can): 1.0791 | Growth represented as mean colony biomass (gRNA cca): 0.9631 | Growth represented as mean colony biomass (gRNA coaA): 0.9606 | Growth, mean colony biomass (n=4) (gRNA csrA): 1.147 | Growth represented as mean colony biomass (gRNA cydA): 0.9568 | Growth represented as mean colony biomass (gRNA cydX): 0.9584 | Growth represented as mean colony biomass (gRNA dapD): 0.9537 | Growth represented as mean colony biomass (gRNA dapE): 0.9829 | Growth represented as mean colony biomass (gRNA der): 0.8304 | Growth represented as mean colony biomass (gRNA dfp): 0.9766 | Growth, mean colony biomass (n=4) (gRNA dnaC): 1.0695 | Growth represented as mean colony biomass (gRNA dnaE): 0.9743 | Growth represented as mean colony biomass (gRNA dnaN): 0.9941 | Growth represented as mean colony biomass (gRNA dnaX): 0.9797 | Growth, mean colony biomass (n=4) (gRNA dut): 1.096 | Growth represented as mean colony biomass (gRNA eno): 0.9696 | Growth represented as mean colony biomass (gRNA era): 0.9809 | Growth represented as mean colony biomass (gRNA fabA): 0.9981 | Growth represented as mean colony biomass (gRNA fabG): 0.9894 | Growth represented as mean colony biomass (gRNA fabI): 0.9716 | Growth represented as mean colony biomass (gRNA fdx): 0.9955 | Growth represented as mean colony biomass (gRNA fldA): 0.9924 | Growth, mean colony biomass (n=4) (gRNA folA): 1.134 | Growth represented as mean colony biomass (gRNA folB): 0.9792 | Growth, mean colony biomass (n=4) (gRNA folC): 1.076 | Growth represented as mean colony biomass (gRNA folE): 0.9726 | Growth represented as mean colony biomass (gRNA folP): 0.9946 | Growth represented as mean colony biomass (gRNA frr): 0.9805 | Growth, mean colony biomass (n=4) (gRNA ftsA): 1.121 | Growth represented as mean colony biomass (gRNA gapA): 0.983 | Growth, mean colony biomass (n=4) (gRNA glmS): 1.092 | Growth represented as mean colony biomass (gRNA glmU): 0.9808 | Growth represented as mean colony biomass (gRNA gltX): 0.9823 | Growth, mean colony biomass (n=4) (gRNA glyA): 1.091 | Growth represented as mean colony biomass (gRNA groS): 0.9881 | Growth represented as mean colony biomass (gRNA grpE): 0.9656 | Growth represented as mean colony biomass (gRNA guaA): 0.9795 | Growth, mean colony biomass (n=4) (gRNA hemD): 1.079 | Growth represented as mean colony biomass (gRNA hemG): 0.9986 | Growth represented as mean colony biomass (gRNA hemH): 1.001 | Growth represented as mean colony biomass (gRNA hemL): 0.9838 | Growth represented as mean colony biomass (gRNA higA): 0.9635 | Growth represented as mean colony biomass (gRNA hisS): 0.9859 | Growth represented as mean colony biomass (gRNA holD): 0.9764 | Growth represented as mean colony biomass (gRNA hscA): 0.9953 | Growth, mean colony biomass (n=4) (gRNA infA): 1.088 | Growth represented as mean colony biomass (gRNA infC): 0.9986 | Growth represented as mean colony biomass (gRNA iscU): 0.9867 | Growth represented as mean colony biomass (gRNA ispB): 0.9983 | Growth represented as mean colony biomass (gRNA ispF): 0.9875 | Growth, mean colony biomass (n=4) (gRNA leuS): 1.417 | Growth, mean colony biomass (n=4) (gRNA lexA): 1.542 | Growth represented as mean colony biomass (gRNA lolC): 0.9579 | Growth, mean colony biomass (n=4) (gRNA lptA): 1.476 | Growth, mean colony biomass (n=4) (gRNA lptB): 1.32 | Growth represented as mean colony biomass (gRNA lptC): 0.9585 | Growth represented as mean colony biomass (gRNA lptE): 0.965 | Growth represented as mean colony biomass (gRNA lptF): 0.9902 | Growth represented as mean colony biomass (gRNA lptG): 0.9845 | Growth represented as mean colony biomass (gRNA lpxC): 0.9609 | Growth represented as mean colony biomass (gRNA lpxD): 0.9569 | Growth, mean colony biomass (n=4) (gRNA mnmA): 1.086 | Growth, mean colony biomass (n=4) (gRNA mrdB): 1.167 | Growth represented as mean colony biomass (gRNA mreB): 0.9936 | Growth represented as mean colony biomass (gRNA mreC): 0.9829 | Growth, mean colony biomass (n=4) (gRNA msbA): 1.264 | Growth, mean colony biomass (n=4) (gRNA mukF): 1.116 | Growth represented as mean colony biomass (gRNA murB): 0.9708 | Growth represented as mean colony biomass (gRNA murC): 0.97 | Growth, mean colony biomass (n=4) (gRNA murI): 1.3051 | Growth, mean colony biomass (n=4) (gRNA nadK): 1.081 | Growth represented as mean colony biomass (gRNA nusB): 0.9578 | Growth represented as mean colony biomass (gRNA plsB): 0.995 | Growth, mean colony biomass (n=4) (gRNA prmC): 1.083 | Growth represented as mean colony biomass (gRNA proS): 0.9787 | Growth, mean colony biomass (n=4) (gRNA psd): 1.711 | Growth, mean colony biomass (n=4) (gRNA pssA): 1.089 | Growth, mean colony biomass (n=4) (gRNA ptsI): 1.104 | Growth represented as mean colony biomass (gRNA racR): 0.9926 | Growth, mean colony biomass (n=4) (gRNA rho): 1.226 | Growth represented as mean colony biomass (gRNA ribA): 0.9923 | Growth represented as mean colony biomass (gRNA ribC): 0.9978 | Growth, mean colony biomass (n=4) (gRNA ribD): 1.096 | Growth represented as mean colony biomass (gRNA ribF): 0.9646 | Growth represented as mean colony biomass (gRNA rimM): 0.9609 | Growth represented as mean colony biomass (gRNA rluD): 0.9905 | Growth, mean colony biomass (n=4) (gRNA rne): 1.098 | Growth represented as mean colony biomass (gRNA rpe): 0.9763 | Growth, mean colony biomass (n=4) (gRNA rplA): 1.0727 | Growth represented as mean colony biomass (gRNA rplD): 0.8324 | Growth represented as mean colony biomass (gRNA rplE): 0.9904 | Growth represented as mean colony biomass (gRNA rplJ): 0.9775 | Growth represented as mean colony biomass (gRNA rplO): 0.9724 | Growth, mean colony biomass (n=4) (gRNA rplP): 1.071 | Growth represented as mean colony biomass (gRNA rplQ): 0.9778 | Growth represented as mean colony biomass (gRNA rplS): 0.9888 | Growth, mean colony biomass (n=4) (gRNA rplV): 1.1552 | Growth, mean colony biomass (n=4) (gRNA rplX): 1.077 | Growth represented as mean colony biomass (gRNA rplY): 0.9853 | Growth, mean colony biomass (n=4) (gRNA rpmC): 1.078 | Growth represented as mean colony biomass (gRNA rpmH): 0.9594 | Growth represented as mean colony biomass (gRNA rpmI): 1.001 | Growth, mean colony biomass (n=4) (gRNA rpoC): 1.115 | Growth, mean colony biomass (n=4) (gRNA rpoE): 1.071 | Growth represented as mean colony biomass (gRNA rpoH): 0.994 | Growth, mean colony biomass (n=4) (gRNA rpsC): 1.101 | Growth, mean colony biomass (n=4) (gRNA rpsD): 1.173 | Growth represented as mean colony biomass (gRNA rpsE): 0.8351 | Growth represented as mean colony biomass (gRNA rpsF): 0.9675 | Growth, mean colony biomass (n=4) (gRNA rpsG): 1.126 | Growth represented as mean colony biomass (gRNA rpsH): 0.8152 | Growth, mean colony biomass (n=4) (gRNA rpsK): 1.169 | Growth, mean colony biomass (n=4) (gRNA rpsL): 1.132 | Growth, mean colony biomass (n=4) (gRNA rpsM): 1.248 | Growth, mean colony biomass (n=4) (gRNA rpsR): 1.124 | Growth, mean colony biomass (n=4) (gRNA rpsT): 1.094 | Growth represented as mean colony biomass (gRNA rsgA): 0.8391 | Growth represented as mean colony biomass (gRNA safA): 0.9619 | Growth, mean colony biomass (n=4) (gRNA secA): 1.102 | Growth represented as mean colony biomass (gRNA secY): 0.8296 | Growth represented as mean colony biomass (gRNA serS): 0.9537 | Growth represented as mean colony biomass (gRNA ssb): 0.8295 | Growth represented as mean colony biomass (gRNA sucA): 0.8419 | Growth, mean colony biomass (n=4) (gRNA suhB): 1.09 | Growth represented as mean colony biomass (gRNA tilS): 0.9915 | Growth represented as mean colony biomass (gRNA tonB): 0.9615 | Growth represented as mean colony biomass (gRNA trmD): 0.9721 | Growth represented as mean colony biomass (gRNA tsaB): 0.9923 | Growth represented as mean colony biomass (gRNA tsaD): 0.966 | Growth, mean colony biomass (n=4) (gRNA tsaE): 1.071 | Growth represented as mean colony biomass (gRNA tsf): 0.966 | Growth represented as mean colony biomass (gRNA tusE): 0.9697 | Growth represented as mean colony biomass (gRNA tyrS): 0.9746 | Growth represented as mean colony biomass (gRNA ubiB): 0.9956 | Growth represented as mean colony biomass (gRNA ubiD): 0.9717 | Growth, mean colony biomass (n=4) (gRNA waaA): 1.073 | Growth represented as mean colony biomass (gRNA ydaS): 0.9729 | Growth represented as mean colony biomass (gRNA ydcD): 0.9759 | Growth represented as mean colony biomass (gRNA ydhL): 1 | Growth, mean colony biomass (n=4) (gRNA yedN): 1.142 | Growth represented as mean colony biomass (gRNA yejM): 0.9938 | Growth represented as mean colony biomass (gRNA yffS): 0.9919 | Growth represented as mean colony biomass (gRNA ygeF): 0.966 | Growth, mean colony biomass (n=4) (gRNA ygeN): 1.0865 | Growth represented as mean colony biomass (gRNA yidC): 0.8136 | Growth represented as mean colony biomass (gRNA ymfE): 0.9804 | Growth represented as mean colony biomass (gRNA ymiB): 0.9585 | Growth, mean colony biomass (n=4) (gRNA yqeL): 1.316 | Growth represented as mean colony biomass (gRNA yqgF): 0.9701 | Growth, mean colony biomass (n=4) (gRNA zipA): 1.803
